Laboratory results from patent US7598245B2 (Vertex Pharmaceuticals Incorporated, priority 2003, dated 2009).

Key:
Assay type in all cases: biochemical
human Src kinase = biological target: T1, human Src kinase (Homo sapiens, UniProt P12931); assay: Src inhibition assay B: spectrophotometric (uv-vis) coupled enzyme assay; details: 100 μM ATP
T1 construct: 25 nM of recombinant human Src kinase
In short: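 Recombinant human Src with 0.25 mg/ml poly Glu-Tyr in 0.025 M HEPES pH 7.6, 10 mM MgCl2, 2 mM DTT, 2.5% DMSO; 10 min preincubation at 30° C, started with 100 μM ATP. ADP quantified by pyruvate kinase/LDH coupled NADH oxidation at 340 nm; rates fitted to competitive inhibition model for Ki.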

KDR = KDR (Homo sapiens, UniProt P35968); assay: Inhibition of KDR, coupled enzyme assay; details: 300 μM ATP, 37° C.
Chain of KDR (P35968 20-1356): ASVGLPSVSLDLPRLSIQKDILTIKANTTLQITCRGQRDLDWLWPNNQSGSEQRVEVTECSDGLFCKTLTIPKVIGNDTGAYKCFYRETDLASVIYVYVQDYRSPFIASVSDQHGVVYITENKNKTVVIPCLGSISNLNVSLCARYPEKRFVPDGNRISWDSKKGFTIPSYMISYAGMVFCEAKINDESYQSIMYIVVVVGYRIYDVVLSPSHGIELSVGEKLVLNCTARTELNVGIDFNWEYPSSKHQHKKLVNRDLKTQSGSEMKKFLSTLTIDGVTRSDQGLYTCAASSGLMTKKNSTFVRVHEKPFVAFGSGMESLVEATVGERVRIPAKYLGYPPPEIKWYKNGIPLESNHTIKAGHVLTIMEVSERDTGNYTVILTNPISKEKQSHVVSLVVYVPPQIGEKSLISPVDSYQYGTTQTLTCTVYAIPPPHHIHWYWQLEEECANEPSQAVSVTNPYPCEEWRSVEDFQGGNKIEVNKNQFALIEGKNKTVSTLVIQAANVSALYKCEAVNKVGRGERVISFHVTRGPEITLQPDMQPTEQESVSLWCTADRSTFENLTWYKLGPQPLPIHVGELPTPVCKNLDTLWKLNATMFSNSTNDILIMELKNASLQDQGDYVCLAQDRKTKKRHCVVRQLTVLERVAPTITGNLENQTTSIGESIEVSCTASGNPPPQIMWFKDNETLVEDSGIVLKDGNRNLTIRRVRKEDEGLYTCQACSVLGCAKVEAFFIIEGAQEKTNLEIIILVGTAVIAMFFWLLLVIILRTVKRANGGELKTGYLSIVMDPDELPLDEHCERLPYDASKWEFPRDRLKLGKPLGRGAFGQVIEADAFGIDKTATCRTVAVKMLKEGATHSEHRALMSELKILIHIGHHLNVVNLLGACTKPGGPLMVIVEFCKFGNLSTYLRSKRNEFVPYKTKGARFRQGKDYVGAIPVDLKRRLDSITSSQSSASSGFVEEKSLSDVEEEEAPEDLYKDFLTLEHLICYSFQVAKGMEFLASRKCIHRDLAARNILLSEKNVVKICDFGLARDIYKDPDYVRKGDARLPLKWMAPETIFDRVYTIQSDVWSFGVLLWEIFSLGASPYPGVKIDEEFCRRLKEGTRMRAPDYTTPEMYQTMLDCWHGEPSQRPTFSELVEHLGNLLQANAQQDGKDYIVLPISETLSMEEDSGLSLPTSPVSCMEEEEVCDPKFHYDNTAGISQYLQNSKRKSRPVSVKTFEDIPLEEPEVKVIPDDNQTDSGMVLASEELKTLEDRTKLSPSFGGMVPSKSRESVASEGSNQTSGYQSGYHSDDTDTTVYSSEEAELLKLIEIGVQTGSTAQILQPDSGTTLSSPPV
Description: Compounds were screened for their ability to inhibit KDR using a standard coupled enzyme assay (Fox et al., Protein Sci., (1998) 7, 2249). Assays were carried out in a mixture of 200 mM HEPES 7.5, 10 mM MgCl2, 25 mM NaCl, 1 mM DTT and 1.5% DMSO. Final substrate concentrations in the assay were 300 μM ATP (Sigma Chemicals) and 10 μM poly E4Y (Sigma). Assays were carried out at 37° C. and 30 nM KDR. Final concentrations of the components of the coupled enzyme system were 2.5 mM phosphoenolpyruvate, 200 μM NADH, 30 μg/ML pyruvate kinase and 10 μg/ml lactate dehydrogenase.
An assay stock buffer solution was prepared containing all of the reagents listed above, with the exception of ATP and the test compound of interest. 177 μl of the stock solution was placed in a 96 well plate followed by addition of 3 μl of 2 mM DMSO stock containing the test compound (final compound concentration 30 μM). The plate was preincubated for about 10 minutes at 37° C. and the reaction initiated by addition of 20 μl of ATP (final concentration 300 μM). Rates of reaction were obtained using a Molecular Devices plate reader (Sunnyvale, Calif.) over a 5 minute read time at 37° C.

JAK-3 = biological target: T2, JAK-3 (Homo sapiens, UniProt P52333); assay: JAK3 inhibition assay (ELISA, Poly (Glu, Ala, Tyr) coated plates); details: 2 μM ATP
T2 sequence (P52333 1-1124): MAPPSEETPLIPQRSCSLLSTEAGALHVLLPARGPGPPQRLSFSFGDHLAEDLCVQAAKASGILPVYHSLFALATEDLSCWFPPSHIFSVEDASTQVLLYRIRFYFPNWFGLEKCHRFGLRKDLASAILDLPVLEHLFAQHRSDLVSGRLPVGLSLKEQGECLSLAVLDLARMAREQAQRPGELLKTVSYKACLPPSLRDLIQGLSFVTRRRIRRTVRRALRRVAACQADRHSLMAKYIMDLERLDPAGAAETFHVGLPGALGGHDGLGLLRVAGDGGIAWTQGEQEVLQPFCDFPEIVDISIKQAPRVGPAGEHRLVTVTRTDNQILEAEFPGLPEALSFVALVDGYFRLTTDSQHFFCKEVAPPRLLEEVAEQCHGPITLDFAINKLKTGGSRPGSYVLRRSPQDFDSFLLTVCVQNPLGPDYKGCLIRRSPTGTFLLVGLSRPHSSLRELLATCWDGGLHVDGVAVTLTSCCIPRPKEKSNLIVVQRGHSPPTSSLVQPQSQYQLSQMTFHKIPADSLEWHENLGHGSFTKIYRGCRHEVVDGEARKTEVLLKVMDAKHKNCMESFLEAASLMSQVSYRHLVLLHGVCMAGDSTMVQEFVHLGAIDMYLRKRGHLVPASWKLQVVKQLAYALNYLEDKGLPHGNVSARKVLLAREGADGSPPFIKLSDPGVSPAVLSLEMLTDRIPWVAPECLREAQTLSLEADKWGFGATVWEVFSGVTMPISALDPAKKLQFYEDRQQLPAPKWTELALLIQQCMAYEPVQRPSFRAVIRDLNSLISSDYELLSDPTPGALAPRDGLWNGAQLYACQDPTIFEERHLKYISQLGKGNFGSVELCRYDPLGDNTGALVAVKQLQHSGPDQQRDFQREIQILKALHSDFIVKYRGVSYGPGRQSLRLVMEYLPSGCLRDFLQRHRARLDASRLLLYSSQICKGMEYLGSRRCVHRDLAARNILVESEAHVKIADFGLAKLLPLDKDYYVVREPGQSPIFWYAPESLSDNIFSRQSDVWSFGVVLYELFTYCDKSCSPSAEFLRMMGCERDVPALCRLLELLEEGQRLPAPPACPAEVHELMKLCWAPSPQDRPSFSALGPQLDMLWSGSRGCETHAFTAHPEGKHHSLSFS
In short: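 ELISA on plates coated with poly(Glu,Ala,Tyr) 6:3:1, with 2 μM ATP, 5 mM MgCl2 and compound. Enzyme-started reaction ran 60 min at 30 °C. Phosphotyrosine detected with HRP-4G10 and TMB at 450 nm; Ki values derived.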

T1 sequence (P12931 whole entry): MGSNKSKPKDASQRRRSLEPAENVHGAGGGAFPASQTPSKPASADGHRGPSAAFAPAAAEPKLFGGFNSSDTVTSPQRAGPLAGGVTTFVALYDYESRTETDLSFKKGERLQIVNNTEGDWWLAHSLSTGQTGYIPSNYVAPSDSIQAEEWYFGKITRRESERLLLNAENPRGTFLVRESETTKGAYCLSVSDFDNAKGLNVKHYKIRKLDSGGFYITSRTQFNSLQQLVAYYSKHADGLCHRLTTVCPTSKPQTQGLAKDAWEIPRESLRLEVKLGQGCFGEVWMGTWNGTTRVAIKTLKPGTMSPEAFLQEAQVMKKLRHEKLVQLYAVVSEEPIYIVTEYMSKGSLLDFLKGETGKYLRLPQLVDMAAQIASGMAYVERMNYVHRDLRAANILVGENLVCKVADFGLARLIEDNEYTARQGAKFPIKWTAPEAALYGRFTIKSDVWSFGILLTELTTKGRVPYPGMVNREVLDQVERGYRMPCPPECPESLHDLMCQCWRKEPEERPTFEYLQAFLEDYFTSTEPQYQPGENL

| Ki (human Src kinase) [nM] | Ki (KDR) [nM] | Ki (JAK-3) [nM] | SMILES |
| --- | --- | --- | --- |
| > 1000 | 100 to 1000 | 10 to 1000 | c1ccc(-n2cnc(Nc3ccc(N4CCOCC4)cc3)n2)cc1 [Compound I-106] |
| > 1000 | > 1000 | > 1000 | c1ccc(-n2cnc(Nc3ccnc(NCCN4CCOCC4)c3)n2)cc1 [Compound I-107] |
| > 1000 | 100 to 1000 | > 1000 | c1ccc(-n2cnc(Nc3ccc(N4CCOCC4)nc3)n2)cc1 [Compound I-134] |
